Assay results as given in the kinase profiling compilation of Christmann-Franck et al. (2016).

Experiments:
Experiment in all cases: radiometric filter-binding kinase assay, Kinase HotSpot
Settings in all cases: compound 0.5 µM; ATP 10 µM
[1] = target: ACVRL1 (human) (UniProt P37023)
[2] = target: AKT1 (human) (UniProt P31749)
[3] = target: BLK (human) (UniProt P51451)
[4] = target: BRSK1 (human) (UniProt Q8TDC3)
[5] = target: BRSK2 (human) (UniProt Q8IWQ3)
[6] = target: CAMKK2 (human) (UniProt Q96RR4)
[7] = target: CDC42BPA (human) (UniProt Q5VT25)
[8] = target: CDK2 CCNA2 (human) (UniProt P24941+P20248)
[9] = target: CDK5 CDK5R1 p35 (human) (UniProt Q00535+Q15078)
[10] = target: CLK2 (human) (UniProt P49760)
[11] = target: CSF1R (human) (UniProt P07333)
[12] = target: DCLK2 (human) (UniProt Q8N568)
[13] = target: DSTYK (human) (UniProt Q6XUX3)
[14] = target: EPHA1 (human) (UniProt P21709)
[15] = target: EPHB2 (human) (UniProt P29323)
[16] = target: EPHB3 (human) (UniProt P54753)
EPHB3 (human), sequence (P54753 whole entry, looked up): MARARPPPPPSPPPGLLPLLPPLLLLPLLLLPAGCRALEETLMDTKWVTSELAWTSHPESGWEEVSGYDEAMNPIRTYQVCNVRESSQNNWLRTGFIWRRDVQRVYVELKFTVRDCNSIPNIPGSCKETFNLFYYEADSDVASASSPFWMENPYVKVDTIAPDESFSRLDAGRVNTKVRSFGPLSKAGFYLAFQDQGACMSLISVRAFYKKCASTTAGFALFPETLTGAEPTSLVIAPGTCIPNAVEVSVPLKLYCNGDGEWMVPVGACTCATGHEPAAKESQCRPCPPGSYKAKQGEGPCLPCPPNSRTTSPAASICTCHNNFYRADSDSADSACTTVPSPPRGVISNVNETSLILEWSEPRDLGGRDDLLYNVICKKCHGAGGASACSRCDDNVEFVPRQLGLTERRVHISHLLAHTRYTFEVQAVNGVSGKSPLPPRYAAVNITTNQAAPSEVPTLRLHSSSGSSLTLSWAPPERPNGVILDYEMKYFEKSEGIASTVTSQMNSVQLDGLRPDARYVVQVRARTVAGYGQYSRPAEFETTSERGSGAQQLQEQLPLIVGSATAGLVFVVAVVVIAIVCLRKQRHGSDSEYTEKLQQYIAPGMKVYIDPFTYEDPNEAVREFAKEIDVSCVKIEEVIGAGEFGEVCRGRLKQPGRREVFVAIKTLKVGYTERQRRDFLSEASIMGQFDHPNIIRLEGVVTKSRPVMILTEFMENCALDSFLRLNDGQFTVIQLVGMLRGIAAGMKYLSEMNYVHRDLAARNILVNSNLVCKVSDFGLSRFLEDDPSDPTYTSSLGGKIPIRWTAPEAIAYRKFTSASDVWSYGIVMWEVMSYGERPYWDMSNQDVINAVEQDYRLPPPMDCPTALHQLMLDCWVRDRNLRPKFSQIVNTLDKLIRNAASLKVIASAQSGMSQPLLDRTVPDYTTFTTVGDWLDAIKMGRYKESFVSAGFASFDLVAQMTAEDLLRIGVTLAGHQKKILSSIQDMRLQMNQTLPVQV

[17] = target: FGFR3 (human) (UniProt P22607)
[18] = target: FRK (human) (UniProt P42685)
FRK (human), sequence (P42685 whole entry, looked up): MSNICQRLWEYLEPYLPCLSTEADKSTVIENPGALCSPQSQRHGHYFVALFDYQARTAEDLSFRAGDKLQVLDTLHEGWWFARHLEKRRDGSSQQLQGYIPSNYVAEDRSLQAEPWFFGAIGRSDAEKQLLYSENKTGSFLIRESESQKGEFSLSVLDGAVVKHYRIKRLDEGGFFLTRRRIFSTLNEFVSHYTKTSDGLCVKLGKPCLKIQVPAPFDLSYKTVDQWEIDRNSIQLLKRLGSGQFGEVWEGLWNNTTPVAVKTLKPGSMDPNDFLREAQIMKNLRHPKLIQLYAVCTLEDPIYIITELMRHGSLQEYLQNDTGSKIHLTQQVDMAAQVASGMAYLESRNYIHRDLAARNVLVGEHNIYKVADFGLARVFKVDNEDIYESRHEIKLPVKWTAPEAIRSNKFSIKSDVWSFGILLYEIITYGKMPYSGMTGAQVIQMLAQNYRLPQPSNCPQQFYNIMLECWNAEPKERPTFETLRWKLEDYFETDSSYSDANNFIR

[19] = target: GSK3A (human) (UniProt P49840)
GSK3A (human), sequence (P49840 whole entry, looked up): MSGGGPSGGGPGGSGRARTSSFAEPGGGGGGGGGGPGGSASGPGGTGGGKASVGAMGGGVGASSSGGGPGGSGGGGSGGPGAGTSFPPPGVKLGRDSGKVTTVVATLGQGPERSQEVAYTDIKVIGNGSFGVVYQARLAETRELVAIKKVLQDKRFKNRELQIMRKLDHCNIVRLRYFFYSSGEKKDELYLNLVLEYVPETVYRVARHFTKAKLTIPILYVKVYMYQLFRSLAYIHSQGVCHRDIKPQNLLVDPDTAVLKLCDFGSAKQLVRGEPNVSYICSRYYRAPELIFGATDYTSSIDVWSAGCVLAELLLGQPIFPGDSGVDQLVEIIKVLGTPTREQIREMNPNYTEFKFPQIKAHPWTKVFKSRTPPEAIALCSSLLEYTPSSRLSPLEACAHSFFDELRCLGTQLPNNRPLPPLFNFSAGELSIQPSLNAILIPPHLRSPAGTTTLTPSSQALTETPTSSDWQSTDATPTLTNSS

[20] = target: INSRR (human) (UniProt P14616)
[21] = target: LRRK2 (human) (UniProt Q5S007)
[22] = target: LTK (human) (UniProt P29376)
[23] = target: MAP2K1 (human) (UniProt Q02750)
[24] = target: MAP2K2 (human) (UniProt P36507)
[25] = target: MAP3K10 (human) (UniProt Q02779)
[26] = target: MAP4K2 (human) (UniProt Q12851)
MAP4K2 (human), sequence (Q12851 whole entry, looked up): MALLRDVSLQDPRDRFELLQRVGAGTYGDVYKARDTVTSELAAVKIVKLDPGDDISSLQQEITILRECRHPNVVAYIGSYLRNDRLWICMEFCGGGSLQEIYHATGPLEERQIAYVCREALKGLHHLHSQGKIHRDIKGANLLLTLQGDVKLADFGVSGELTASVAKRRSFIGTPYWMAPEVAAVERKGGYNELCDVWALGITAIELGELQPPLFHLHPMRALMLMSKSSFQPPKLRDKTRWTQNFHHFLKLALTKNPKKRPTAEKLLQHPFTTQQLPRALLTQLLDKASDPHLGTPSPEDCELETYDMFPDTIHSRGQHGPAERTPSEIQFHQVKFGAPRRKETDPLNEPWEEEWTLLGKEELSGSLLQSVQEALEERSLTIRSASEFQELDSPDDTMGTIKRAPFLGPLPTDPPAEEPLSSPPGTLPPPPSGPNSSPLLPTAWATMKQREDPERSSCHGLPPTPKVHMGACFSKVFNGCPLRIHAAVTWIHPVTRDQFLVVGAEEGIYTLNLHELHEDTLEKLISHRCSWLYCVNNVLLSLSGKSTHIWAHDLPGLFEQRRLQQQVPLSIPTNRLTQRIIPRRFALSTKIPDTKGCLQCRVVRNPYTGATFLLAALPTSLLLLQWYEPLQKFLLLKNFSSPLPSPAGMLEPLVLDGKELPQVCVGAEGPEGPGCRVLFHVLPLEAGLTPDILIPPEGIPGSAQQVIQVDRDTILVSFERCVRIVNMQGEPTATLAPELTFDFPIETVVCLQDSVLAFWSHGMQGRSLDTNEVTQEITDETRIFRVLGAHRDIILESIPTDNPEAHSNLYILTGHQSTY

[27] = target: MAPK13 (human) (UniProt O15264)
[28] = target: MAPKAPK3 (human) (UniProt Q16644)
[29] = target: MARK3 (human) (UniProt P27448)
[30] = target: MYLK2 (human) (UniProt Q9H1R3)
[31] = target: NEK9 (human) (UniProt Q8TD19)
[32] = target: PAK6 (human) (UniProt Q9NQU5)
PAK6 (human), sequence (Q9NQU5 whole entry, looked up): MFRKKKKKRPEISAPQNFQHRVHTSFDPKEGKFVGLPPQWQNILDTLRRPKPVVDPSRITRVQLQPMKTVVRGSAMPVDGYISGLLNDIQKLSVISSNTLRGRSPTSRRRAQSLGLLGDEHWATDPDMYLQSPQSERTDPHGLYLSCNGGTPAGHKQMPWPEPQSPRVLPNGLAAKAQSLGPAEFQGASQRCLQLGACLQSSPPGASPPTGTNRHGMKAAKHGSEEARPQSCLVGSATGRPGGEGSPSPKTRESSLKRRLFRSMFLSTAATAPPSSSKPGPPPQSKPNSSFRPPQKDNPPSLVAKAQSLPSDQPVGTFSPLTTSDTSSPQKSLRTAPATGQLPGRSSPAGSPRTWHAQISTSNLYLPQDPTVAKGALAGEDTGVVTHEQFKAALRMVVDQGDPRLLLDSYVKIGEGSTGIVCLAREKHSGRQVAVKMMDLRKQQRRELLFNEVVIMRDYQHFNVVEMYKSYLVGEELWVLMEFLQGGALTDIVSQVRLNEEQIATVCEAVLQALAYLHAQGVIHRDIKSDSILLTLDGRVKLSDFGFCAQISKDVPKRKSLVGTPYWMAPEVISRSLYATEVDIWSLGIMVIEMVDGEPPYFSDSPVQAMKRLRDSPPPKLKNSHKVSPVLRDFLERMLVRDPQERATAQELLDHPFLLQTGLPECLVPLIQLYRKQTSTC

[33] = target: PASK (human) (UniProt Q96RG2)
[34] = target: PHKG1 (human) (UniProt Q16816)
[35] = target: PIM2 (human) (UniProt Q9P1W9)
[36] = target: PRKACA (human) (UniProt P17612)
[37] = target: RPS6KA1 KD1 KD2 (human) (UniProt Q15418)
[38] = target: RPS6KA3 KD1 KD2 (human) (UniProt P51812)
[39] = target: STK16 (human) (UniProt O75716)
[40] = target: ULK1 (human) (UniProt O75385)
ULK1 (human), sequence (O75385 whole entry, looked up): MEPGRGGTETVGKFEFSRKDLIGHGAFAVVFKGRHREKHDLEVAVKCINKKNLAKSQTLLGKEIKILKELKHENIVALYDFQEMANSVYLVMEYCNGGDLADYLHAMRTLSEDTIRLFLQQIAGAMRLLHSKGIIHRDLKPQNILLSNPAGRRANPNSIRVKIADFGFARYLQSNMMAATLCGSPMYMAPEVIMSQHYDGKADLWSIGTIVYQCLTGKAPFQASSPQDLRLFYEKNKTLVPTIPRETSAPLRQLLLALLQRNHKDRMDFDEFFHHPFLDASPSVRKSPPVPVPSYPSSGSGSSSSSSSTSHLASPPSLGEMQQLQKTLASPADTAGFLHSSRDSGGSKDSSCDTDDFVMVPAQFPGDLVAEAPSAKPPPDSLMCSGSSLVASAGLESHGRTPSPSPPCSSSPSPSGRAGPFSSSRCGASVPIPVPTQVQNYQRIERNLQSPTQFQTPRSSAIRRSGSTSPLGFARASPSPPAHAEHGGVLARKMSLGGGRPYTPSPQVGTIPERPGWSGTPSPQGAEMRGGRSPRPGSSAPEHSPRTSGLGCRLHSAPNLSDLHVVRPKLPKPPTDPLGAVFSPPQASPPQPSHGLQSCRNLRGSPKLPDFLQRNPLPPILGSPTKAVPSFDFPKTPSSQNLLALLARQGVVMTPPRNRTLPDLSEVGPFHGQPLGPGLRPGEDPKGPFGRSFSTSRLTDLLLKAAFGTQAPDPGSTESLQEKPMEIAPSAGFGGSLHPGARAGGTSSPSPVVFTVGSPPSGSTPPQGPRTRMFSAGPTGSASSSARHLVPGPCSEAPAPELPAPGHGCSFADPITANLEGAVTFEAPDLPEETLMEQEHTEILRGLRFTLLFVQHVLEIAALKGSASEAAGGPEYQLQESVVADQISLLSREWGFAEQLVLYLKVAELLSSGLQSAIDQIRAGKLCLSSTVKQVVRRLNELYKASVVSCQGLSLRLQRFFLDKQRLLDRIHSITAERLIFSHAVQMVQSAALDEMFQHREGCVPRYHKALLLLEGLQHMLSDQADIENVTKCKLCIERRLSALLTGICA

[41] = target: ULK2 (human) (UniProt Q8IYT8)

BLK (human), sequence (P51451 whole entry, looked up): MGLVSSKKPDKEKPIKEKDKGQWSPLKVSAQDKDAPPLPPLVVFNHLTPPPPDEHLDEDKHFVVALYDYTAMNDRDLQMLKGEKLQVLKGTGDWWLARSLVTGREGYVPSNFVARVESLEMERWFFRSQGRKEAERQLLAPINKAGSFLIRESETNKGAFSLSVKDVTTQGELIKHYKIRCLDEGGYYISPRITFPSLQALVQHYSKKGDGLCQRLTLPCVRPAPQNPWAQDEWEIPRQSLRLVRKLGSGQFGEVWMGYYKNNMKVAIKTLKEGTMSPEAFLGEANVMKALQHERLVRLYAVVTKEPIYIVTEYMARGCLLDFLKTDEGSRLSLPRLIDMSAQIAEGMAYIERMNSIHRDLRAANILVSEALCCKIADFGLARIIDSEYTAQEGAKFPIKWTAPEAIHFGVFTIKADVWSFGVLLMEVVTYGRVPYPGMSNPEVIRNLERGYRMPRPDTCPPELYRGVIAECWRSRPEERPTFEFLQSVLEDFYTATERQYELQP

CC#CC(=O)Nc1cc2c(Nc3ccc(F)c(Cl)c3)ncnc2cn1
residual activity [1]: 101%
residual activity [2]: 98.1%
residual activity [3]: 21.3%
residual activity [4]: 102%
residual activity [5]: 93.3%
residual activity [6]: 103%
residual activity [7]: 93.1%
residual activity [8]: 97.8%
residual activity [9]: 97.9%
residual activity [10]: 100%
residual activity [11]: 101%
residual activity [12]: 102%
residual activity [13]: 91.1%
residual activity [14]: 88.3%
residual activity [15]: 80.9%
residual activity [16]: 85.4%
residual activity [17]: 108%
residual activity [18]: 102%
residual activity [19]: 104%
residual activity [20]: 101%
residual activity [21]: 92.3%
residual activity [22]: 93%
residual activity [23]: 95.3%
residual activity [24]: 106%
residual activity [25]: 98.9%
residual activity [26]: 114%
residual activity [27]: 105%
residual activity [28]: 105%
residual activity [29]: 107%
residual activity [30]: 99.9%
residual activity [31]: 104%
residual activity [32]: 96.9%
residual activity [33]: 101%
residual activity [34]: 103%
residual activity [35]: 111%
residual activity [36]: 97.7%
residual activity [37]: 95.1%
residual activity [38]: 97.5%
residual activity [39]: 104%
residual activity [40]: 96.6%
residual activity [41]: 96.7%

CCN(CC)C(=O)c1ccc(Nc2nc(OCC3CCCCC3)c3nc[nH]c3n2)cc1
residual activity [1]: 106%
residual activity [2]: 98.8%
residual activity [3]: 60.9%
residual activity [4]: 84%
residual activity [5]: 82.5%
residual activity [6]: 97.5%
residual activity [7]: 90.7%
residual activity [8]: 55.8%
residual activity [9]: 77.1%
residual activity [10]: 40.6%
residual activity [11]: 5.73%
residual activity [12]: 97.3%
residual activity [13]: 106%
residual activity [14]: 90.2%
residual activity [15]: 93.7%
residual activity [16]: 99.5%
residual activity [17]: 66.9%
residual activity [18]: 116%
residual activity [19]: 80.3%
residual activity [20]: 80.8%
residual activity [21]: 2.21%
residual activity [22]: 66.1%
residual activity [23]: 94.1%
residual activity [24]: 94%
residual activity [25]: 15.2%
residual activity [26]: 59.7%
residual activity [27]: 95.3%
residual activity [28]: 103%
residual activity [29]: 85.4%
residual activity [30]: 94.7%
residual activity [31]: 81.9%
residual activity [32]: 95.5%
residual activity [33]: 103%
residual activity [34]: 85.9%
residual activity [35]: 105%
residual activity [36]: 93.7%
residual activity [37]: 57.1%
residual activity [38]: 17.6%
residual activity [39]: 33.6%
residual activity [40]: 77.7%
residual activity [41]: 84.9%

Cc1ccc(NC2=CC(=O)c3sc(C)nc3C2=O)cc1
residual activity [1]: 101%
residual activity [2]: 83.3%
residual activity [3]: 95.4%
residual activity [4]: 88.6%
residual activity [5]: 93.1%
residual activity [6]: 92.5%
residual activity [7]: 77.6%
residual activity [8]: 88.1%
residual activity [9]: 86.3%
residual activity [10]: 83.6%
residual activity [11]: 89.9%
residual activity [12]: 95.3%
residual activity [13]: 76.1%
residual activity [14]: 86.1%
residual activity [15]: 100%
residual activity [16]: 89.2%
residual activity [17]: 86%
residual activity [18]: 87.9%
residual activity [19]: 102%
residual activity [20]: 90%
residual activity [21]: 102%
residual activity [22]: 88.8%
residual activity [23]: 96.1%
residual activity [24]: 98.8%
residual activity [25]: 94.6%
residual activity [26]: 104%
residual activity [27]: 105%
residual activity [28]: 76.5%
residual activity [29]: 95.1%
residual activity [30]: 92.8%
residual activity [31]: 99.4%
residual activity [32]: 110%
residual activity [33]: 89.4%
residual activity [34]: 88.7%
residual activity [35]: 103%
residual activity [36]: 95.9%
residual activity [37]: 102%
residual activity [38]: 104%
residual activity [39]: 91.7%
residual activity [40]: 114%
residual activity [41]: 96.9%
